# Legend:
# [1] = Flavor evaluation of water solutions; settings: for Flavor Profile: water solution
# Protocol: A series of water solutions of N-(4-methoxyphenyl)-2-methyl-2-(1-methylcyclohexyl)propenamide (Structure A4) were prepared and evaluated for flavor. The flavor profile is reported in the following:
# Preparation and Evaluation of N-(4-Methoxyphenyl)-2-methyl-2-(1-methylcyclohexyl)propenamide (Structure A4) and 1-(tert-Butyl)-N-(4-methoxyphenyl)cyclohexane-1-carboxamide (Structure B4) Mixtures of Different Ratios: Mixtures of N-(4-methoxyphenyl)-2-methyl-2-(1-methylcyclohexyl)propenamide (Structure A4) and 1-(tert-butyl)-N-(4-methoxyphenyl)cyclohexane-1-carboxamide (Structure B4) were prepared by mixing two compounds at different ratios. “Ratio” refers to the weight ratio of Structure A4 and Structure B4. Water solutions of the mixtures (375 ppb) were prepared and evaluated for flavor in water, MSG solution (5000 ppm) and a salt solution (containing NaCl of 3750 ppm, Ribotide® of 35 ppm and MSG of 840 ppm), respectively. Water, MSG solution and the salt solution were each used as base controls.
# [2] = Flavor evaluation in monosodium glutamate (MSG) solution (5000 ppm)
# Protocol: A monosodium glutamate (MSG) solution (5000 ppm) was prepared in water. The flavor profile of the MSG solution with added Structure A4 is reported in the following:
# As used herein, the term “synergistic umami” refers to the umami effect of the Structure A4 and MSG combination that is stronger than the added umami effect of individual Structure A4 and MSG. […]
# [3] = Flavor evaluation in Ribotide solution (1000 ppm); settings: 2 ppm added in Ribotide solution (1000 ppm)
# Description: The Structure A4 and B4 mixture of 50:50 ratio ([…]) was further evaluated in Ribotide® (1000 ppm).
# [4] = Summary statements over all flavor evaluations
structure (smiles),measurement,setting,value
"COc1ccc(NC(=O)C2(C(C)(C)C)CCCCC2)cc1 [Structure B4, 1-(tert-butyl)-N-(4-methoxyphenyl)cyclohexane-1-carboxamide]",Flavor in water,[1]; 375 ppb in water,"slight umami, slight sweetness and bitter linger"
"COc1ccc(NC(=O)C(C)(C)C2(C)CCCCC2)cc1 [Structure A4, N-(4-Methoxyphenyl)-2-methyl-2-(1-methylcyclohexyl)propenamide]",Flavor Profile,[1]; Structure A4 1 ppm,"Strong umami, cooling, tingly, tongue scratching"
same,Flavor Profile,[1]; Structure A4 2 ppm,"Strong and lingering umami, good mouthfeel, cooling, tingling"
same,Flavor Profile,[1]; Structure A4 5 ppm,"Strong and lingering umami, moderate and lingering cooling, lingering bitter, drying"
same,Flavor Profile,[1]; Structure A4 10 ppm,"Moderate umami, moderate cooling, lingering bitter, tingling, brackish linger"
same,Flavor Profile,[1]; Structure A4 15 ppm,"Moderate umami, moderate cooling, lingering bitter, creamy, mineral, drying"
same,Flavor Profile,[1]; Structure A4 100 ppb,"Very slight bitter, minimal cooling, drying linger, minimal umami"
same,Flavor Profile,[1]; Structure A4 200 ppb,"Slight cooling, slight bitter, drying, very slight umami"
same,Flavor Profile,[1]; Structure A4 375 ppb,"Slight bitter, cooling, umami, linger"
same,Flavor Profile,[1]; Structure A4 500 ppb,"Clear and moderate umami, slight bitter, cooling, linger"
same,Flavor Profile,[1]; Structure A4 750 ppb,"Clear and moderate umami, cooling, slightly soapy, slightly waxy"
same,Umami in water,"[1]; water solutions, all concentrations 100 ppb to 15 ppm",exhibited umami
same,Umami Strength,[2]; MSG solution (5000 ppm) with added Structure A4 1 ppm,"Synergistic umami of Structure A4 and MSG, lingering umami"
same,Umami Strength,[2]; MSG solution (5000 ppm) with added Structure A4 2 ppm,"Synergistic umami of Structure A4 and MSG, lingering umami"
same,Umami Strength,[2]; MSG solution (5000 ppm) with added Structure A4 5 ppm,"Synergistic umami of Structure A4 and MSG, strong cooling"
same,Umami Strength,[2]; MSG solution (5000 ppm) with added Structure A4 10 ppm,"Synergistic umami of Structure A4 and MSG, strong cooling"
same,Umami Strength,[2]; MSG solution (5000 ppm) with added Structure A4 15 ppm,"Synergistic umami of Structure A4 and MSG, strong cooling"
same,Umami Strength,[2]; MSG solution (5000 ppm) with added Structure A4 100 ppb,Added effect of Structure A4 and MSG
same,Umami Strength,[2]; MSG solution (5000 ppm) with added Structure A4 200 ppb,"Synergistic umami of Structure A4 and MSG, lingering umami"
same,Umami Strength,[2]; MSG solution (5000 ppm) with added Structure A4 375 ppb,"Synergistic umami of Structure A4 and MSG, lingering umami"
same,Umami Strength,[2]; MSG solution (5000 ppm) with added Structure A4 500 ppb,"Synergistic umami of Structure A4 and MSG, lingering umami"
same,Umami Strength,[2]; MSG solution (5000 ppm) with added Structure A4 750 ppb,"Synergistic umami of Structure A4 and MSG, lingering umami"
same,Synergistic umami with MSG,[2]; Structure A4 ranging from 200 ppb to 15 ppm and MSG (5000 ppm),Synergistic umami was achieved
same,Synergistic umami in Ribotide solution,[3],synergistic umami was also achieved
same,Umami character,[4]; in all evaluations,provided upfront and lingering umami character
same,Synergistic umami,[4]; when combined with Structure B4 and/or an additional umami compound,achieved synergistic umami
